Where a name gives a salt, the structure may show the parent alone.
Tests used:
TetR-HP1 = experiment: Orthogonal TetR-HP1 recruitment assay (BFP reporter); assay type: cell-based, mouse; details: 5 μM, 48 hrs, with TetR-HP1 recruitment
Description: (§1) The CiA:Oct4 recruitment system in mouse embryonic stem cells contains Gal4 and Zinc finger DNA binding arrays and a downstream nuclear eGFP gene in place of a single Oct4 allele as previously described (Hathaway et al., 2012). The CiA:Oct4 N118/N163 cell line containing viral integrations of N118 and N163 plasmids (N118-nLV EF-1α-Gal-FKBPx1-HA-PGK-Blast, N163-nLV EF-1α-HP1α (CS)-Frbx2(Frb+FrbWobb)-V5-PGK-Puro) was used for all experiments unless otherwise stated. The CiA:Oct4 N205 line containing the lentiviral construct N205 (N205-nLV EF-1α-ZFHD1-link-FKBP-HA <T2A> HP1αCS-Frbx2-V5-PGK-Blast) was used for shRNA experiments. CiA:Oct4 N118 was infected with the lentiviral construct N192 (N192-nLV Dual Promoter EF-1α-MCS-PGK-Puro HP1γ-(CS)-Frbx2(wobbmo)-V5) to yield the csHP1γ recruitment system CiA:Oct4 N118/N192. […]
TetR-HP1 cell lines were continuously grown with 1 μg/ml doxycycline to maintain an open chromatin state. […] Median BFP intensity was determined by FlowJo software analysis. […]

[1] = system: HP1 heterochromatin pathway; experiment: Small molecule high-throughput flow cytometry screen, CiA:Oct4 N118/N163 cells with rapamycin (csHP1α recruitment); assay type: cell-based, mouse; details: 10 μM compound, + 6 nM rapamycin, 48 hrs
Description: as §1, with “N118/N192. For orthogonal recruitment system, stable mESC cell line with blue fluorescent protein (BFP) reporter gene with tetracycline response elements (TRE) was generated by recombinase-mediated cassette exchange, by introducing the reporter cassette DNA in plasmid YR06 into a genetrap located on chromosome 15 at genome coordinates chr15:99941948 (Lienert et al. (2011) Nature Genetics 43(11): 1091-1097; Elling et al. (2017) Nature 550(7674): 114-118).” for “N118/N192.”
Flow cytometry was performed using an Intellicyt iQue Screener and analyzed with FlowJo software. […]

COc1cc2nc(N3CCCC3)nc(N[C@H]3CCCNC3)c2cc1OC [compound 1, (S)-6,7-Dimethoxy-N-(Piperidin-3-yl)-2-(Pyrrolidin-1-yl)Quinazolin-4-Amine Trifluoroacetic Acid Salt]
Inhibition of HP1-mediated heterochromatin formation (median BFP expression) (TetR-HP1): significantly inhibit | GFP expression / % GFP (+) population despite csHP1α recruitment [1]: increased expression of GFP

Reference: patent US11254654B2, “Heterochromatin gene repression inhibitors” (The University of North Carolina at Chapel Hill, priority 2017, dated 2022)
